Reference: US12065436B2, “Cardiac sarcomere inhibitors” (Cytokinetics, Inc., priority 2018, dated 2024)

Target: bovine cardiac myofibrils (full-length cardiac myosin ATPase in the native sarcomere) (Bos taurus (Bovine), UniProt Q9BE39)
Experiment: Skinned bovine cardiac myofibril ATPase assay (PK/LDH-coupled)
Assay type: biochemical
Conditions: Ca2+ activating to 75% of maximal rate; for CDMF75 IC15: concentration giving 15% inhibition; for IC50: read-out: CDMF75 IC50
Summary of the method: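 Triton-skinned bovine left-ventricle myofibrils (1 mg/mL) in PM 12 buffer (12 mM PIPES, 2 mM MgCl2, pH 6.8) with 50 μM ATP, 0.6 mM EGTA and CaCl2 set for 50% or 75% activation. Steady-state ATPase inhibition followed by PK/LDH-coupled NADH oxidation at 340 nm.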

bovine cardiac myofibrils (full-length cardiac myosin ATPase in the native sarcomere), sequence (Q9BE39 whole entry): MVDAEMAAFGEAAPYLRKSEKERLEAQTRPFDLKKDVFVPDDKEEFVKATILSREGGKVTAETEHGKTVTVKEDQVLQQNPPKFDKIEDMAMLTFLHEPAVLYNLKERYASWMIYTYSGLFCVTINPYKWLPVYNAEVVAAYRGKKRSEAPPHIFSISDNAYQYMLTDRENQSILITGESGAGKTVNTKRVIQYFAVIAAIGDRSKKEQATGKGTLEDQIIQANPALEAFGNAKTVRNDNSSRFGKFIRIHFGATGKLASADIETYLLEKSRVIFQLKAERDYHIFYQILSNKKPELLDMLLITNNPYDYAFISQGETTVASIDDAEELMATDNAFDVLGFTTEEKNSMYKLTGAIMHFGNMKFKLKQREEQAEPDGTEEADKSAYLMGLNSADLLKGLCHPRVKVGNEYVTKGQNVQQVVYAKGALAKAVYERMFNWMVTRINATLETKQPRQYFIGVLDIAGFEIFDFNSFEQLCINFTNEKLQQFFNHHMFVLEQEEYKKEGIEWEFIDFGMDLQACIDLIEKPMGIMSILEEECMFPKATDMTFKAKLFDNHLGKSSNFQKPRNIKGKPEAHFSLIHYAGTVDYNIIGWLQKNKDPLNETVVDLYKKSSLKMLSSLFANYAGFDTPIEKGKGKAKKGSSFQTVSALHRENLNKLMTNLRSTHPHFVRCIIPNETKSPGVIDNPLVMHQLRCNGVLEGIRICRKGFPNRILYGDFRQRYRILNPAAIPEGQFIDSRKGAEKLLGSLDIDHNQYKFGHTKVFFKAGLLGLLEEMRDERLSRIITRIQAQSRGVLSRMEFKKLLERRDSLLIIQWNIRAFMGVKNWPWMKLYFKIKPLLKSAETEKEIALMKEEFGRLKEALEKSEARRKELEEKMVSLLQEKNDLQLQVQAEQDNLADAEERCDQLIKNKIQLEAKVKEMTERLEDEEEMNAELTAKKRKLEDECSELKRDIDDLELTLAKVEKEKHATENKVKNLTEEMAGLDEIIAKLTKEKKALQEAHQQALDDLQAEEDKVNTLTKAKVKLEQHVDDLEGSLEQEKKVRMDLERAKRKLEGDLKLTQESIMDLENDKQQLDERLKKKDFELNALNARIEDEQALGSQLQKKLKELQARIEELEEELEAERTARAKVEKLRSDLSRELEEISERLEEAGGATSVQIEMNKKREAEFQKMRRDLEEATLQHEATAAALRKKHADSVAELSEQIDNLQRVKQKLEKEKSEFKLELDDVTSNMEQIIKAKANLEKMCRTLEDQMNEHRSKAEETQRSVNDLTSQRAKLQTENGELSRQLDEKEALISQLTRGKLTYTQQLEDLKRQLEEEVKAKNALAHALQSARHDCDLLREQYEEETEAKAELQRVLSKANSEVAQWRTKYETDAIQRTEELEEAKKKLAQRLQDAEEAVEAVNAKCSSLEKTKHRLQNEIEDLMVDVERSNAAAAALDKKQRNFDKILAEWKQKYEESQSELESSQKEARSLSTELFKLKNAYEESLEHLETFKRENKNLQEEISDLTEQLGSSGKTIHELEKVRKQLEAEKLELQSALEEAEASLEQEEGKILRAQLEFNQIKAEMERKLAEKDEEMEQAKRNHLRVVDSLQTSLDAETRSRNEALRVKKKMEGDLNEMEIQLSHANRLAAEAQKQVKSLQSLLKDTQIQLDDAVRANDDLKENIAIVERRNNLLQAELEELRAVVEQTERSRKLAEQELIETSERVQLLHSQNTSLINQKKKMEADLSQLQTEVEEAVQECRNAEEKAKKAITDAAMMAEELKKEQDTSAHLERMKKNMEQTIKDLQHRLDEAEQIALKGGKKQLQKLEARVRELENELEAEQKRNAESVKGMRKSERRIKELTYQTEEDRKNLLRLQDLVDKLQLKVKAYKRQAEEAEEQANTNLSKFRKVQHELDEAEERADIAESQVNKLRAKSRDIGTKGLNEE
bovine cardiac myofibrils (full-length cardiac myosin ATPase in the native sarcomere), sequence (P85100 whole entry partner): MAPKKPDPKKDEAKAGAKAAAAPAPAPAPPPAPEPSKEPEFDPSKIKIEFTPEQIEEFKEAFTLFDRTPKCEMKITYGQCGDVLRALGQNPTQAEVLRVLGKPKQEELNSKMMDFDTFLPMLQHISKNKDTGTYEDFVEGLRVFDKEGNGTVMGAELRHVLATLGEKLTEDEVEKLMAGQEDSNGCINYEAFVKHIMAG
bovine cardiac myofibrils (full-length cardiac myosin ATPase in the native sarcomere), sequence (Q3SZE5 whole entry partner): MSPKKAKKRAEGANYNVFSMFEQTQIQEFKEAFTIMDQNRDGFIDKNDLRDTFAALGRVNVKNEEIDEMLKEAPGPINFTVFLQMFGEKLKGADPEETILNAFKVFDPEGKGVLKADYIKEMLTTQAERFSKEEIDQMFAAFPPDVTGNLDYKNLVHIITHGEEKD

| CDMF75 IC15 | IC50 | Structure (SMILES) |
| --- | --- | --- |
| 1000 nM | 3800 nM | Cc1nc(C)c(C(=O)NC2COc3cc(-c4noc(C(F)F)n4)ccc32)o1 (centres unmarked) [Compound 192, N-(6-(5-(difluoromethyl)-1,2,4-oxadiazol-3-yl)-2,3-dihydrobenzofuran-3-yl)-2,4-dimethyloxazole-5-carboxamide] |
| 500 nM | 2100 nM | Cc1nc(C)c(C(=O)N[C@@H]2COc3cc(-c4noc(C(F)F)n4)ccc32)o1 [Compound 193, (S)-N-(6-(5-(difluoromethyl)-1,2,4-oxadiazol-3-yl)-2,3-dihydrobenzofuran-3-yl)-2,4-dimethyloxazole-5-carboxamide] |
| 700 nM | 2600 nM | Cc1cc(C(=O)N[C@@H]2CCc3cc(-c4nc(C)no4)ccc32)n(C)n1 [Compound 194, (R)-1,3-dimethyl-N-(5-(3-methyl-1,2,4-oxadiazol-5-yl)-2,3-dihydro-1H-inden-1-yl)-1H-pyrazole-5-carboxamide] |
| 10100 nM | > 39200 nM | Cc1cc(C(=O)NC2COc3cc(-c4noc(C(F)F)n4)cnc32)ccn1 (centres unmarked) [Compound 195, N-(6-(5-(difluoromethyl)-1,2,4-oxadiazol-3-yl)-2,3-dihydrofuro[3,2-b]pyridin-3-yl)-2-methylisonicotinamide] |
| 4500 nM | 17400 nM | Cc1cc(C(=O)N[C@@H]2COc3cc(-c4noc(C(F)F)n4)cnc32)ccn1 [Compound 196, (S)—N-(6-(5-(difluoromethyl)-1,2,4-oxadiazol-3-yl)-2,3-dihydrofuro[3,2-b]pyridin-3-yl)-2-methylisonicotinamide] |
| 3200 nM | 12400 nM | Cn1nnc(C(=O)NC2COc3cc(-c4noc(C(F)F)n4)ccc32)n1 (centres unmarked) [Compound 197, N-(6-(5-(difluoromethyl)-1,2,4-oxadiazol-3-yl)-2,3-dihydrobenzofuran-3-yl)-2-methyl-2H-tetrazole-5-carboxamide] |
| 2000 nM | 7200 nM | Cn1nnc(C(=O)N[C@@H]2COc3cc(-c4noc(C(F)F)n4)ccc32)n1 [Compound 198, (S)-N-(6-(5-(difluoromethyl)-1,2,4-oxadiazol-3-yl)-2,3-dihydrobenzofuran-3-yl)-2-methyl-2H-tetrazole-5-carboxamide] |
| 6000 nM | 24100 nM | Cc1nc(-c2ccc3c(c2)OCC3NC(=O)c2nnn(C)n2)no1 (centres unmarked) [Compound 199, 2-methyl-N-(6-(5-methyl-1,2,4-oxadiazol-3-yl)-2,3-dihydrobenzofuran-3-yl)-2H-tetrazole-5-carboxamide] |
| 2600 nM | 11300 nM | Cc1nc(-c2ccc3c(c2)OC[C@H]3NC(=O)c2nnn(C)n2)no1 [Compound 200, (S)-2-methyl-N-(6-(5-methyl-1,2,4-oxadiazol-3-yl)-2,3-dihydrobenzofuran-3-yl)-2H-tetrazole-5-carboxamide] |
| 1400 nM | 5400 nM | Cc1noc(-c2ccc3c(c2)CC[C@H]3NC(=O)c2cn(C)nc2C)n1 [Compound 201, (R)-1,3-dimethyl-N-(5-(3-methyl-1,2,4-oxadiazol-5-yl)-2,3-dihydro-1H-inden-1-yl)-1H-pyrazole-4-carboxamide] |
| 2600 nM | 10500 nM | Cc1noc(-c2ccc3c(c2)CC[C@H]3NC(=O)c2cnc(C)o2)n1 [Compound 202, (R)-2-methyl-N-(5-(3-methyl-1,2,4-oxadiazol-5-yl)-2,3-dihydro-1H-inden-1-yl)oxazole-5-carboxamide] |
| 1000 nM | 3600 nM | Cc1noc(-c2ccc3c(c2)CC[C@H]3NC(=O)c2nnn(C)n2)n1 [Compound 203, (R)-2-methyl-N-(5-(3-methyl-1,2,4-oxadiazol-5-yl)-2,3-dihydro-1H-inden-1-yl)-2H-tetrazole-5-carboxamide] |
| 500 nM | 1800 nM | Cc1noc(-c2ccc3c(c2)CC[C@H]3NC(=O)c2ccnn2C)n1 [Compound 204, (R)-1-methyl-N-(5-(3-methyl-1,2,4-oxadiazol-5-yl)-2,3-dihydro-1H-inden-1-yl)-1H-pyrazole-5-carboxamide] |
| 1100 nM | 4000 nM | Cc1ncc(C(=O)NC2COc3cc(-c4noc(C(F)F)n4)ccc32)o1 (centres unmarked) [Compound 205, N-(6-(5-(difluoromethyl)-1,2,4-oxadiazol-3-yl)-2,3-dihydrobenzofuran-3-yl)-2-methyloxazole-5-carboxamide] |
| 700 nM | 2300 nM | Cc1ncc(C(=O)N[C@@H]2COc3cc(-c4noc(C(F)F)n4)ccc32)o1 [Compound 206, (S)-N-(6-(5-(difluoromethyl)-1,2,4-oxadiazol-3-yl)-2,3-dihydrobenzofuran-3-yl)-2-methyloxazole-5-carboxamide] |
| 1000 nM | 3600 nM | Cc1nn(C)cc1C(=O)NC1COc2cc(-c3noc(C(F)F)n3)ccc21 (centres unmarked) [Compound 207, N-(6-(5-(difluoromethyl)-1,2,4-oxadiazol-3-yl)-2,3-dihydrobenzofuran-3-yl)-1,3-dimethyl-1H-pyrazole-4-carboxamide] |

| CDMF75 IC15 | IC50 | Structure (SMILES) |
| --- | --- | --- |
| 500 nM | 1600 nM | Cc1nn(C)cc1C(=O)N[C@@H]1COc2cc(-c3noc(C(F)F)n3)ccc21 [Compound 208, (S)-N-(6-(5-(difluoromethyl)-1,2,4-oxadiazol-3-yl)-2,3-dihydrobenzofuran-3-yl)-1,3-dimethyl-1H-pyrazole-4-carboxamide] |
| 900 nM | 3300 nM | Cc1c(C(=O)NC2COc3cc(-c4noc(C(F)F)n4)ccc32)cnn1C (centres unmarked) [Compound 209, N-(6-(5-(difluoromethyl)-1,2,4-oxadiazol-3-yl)-2,3-dihydrobenzofuran-3-yl)-1,5-dimethyl-1H-pyrazole-4-carboxamide] |
| 500 nM | 1600 nM | Cc1c(C(=O)N[C@@H]2COc3cc(-c4noc(C(F)F)n4)ccc32)cnn1C [Compound 210, (S)-N-(6-(5-(difluoromethyl)-1,2,4-oxadiazol-3-yl)-2,3-dihydrobenzofuran-3-yl)-1,5-dimethyl-1H-pyrazole-4-carboxamide] |
| 1700 nM | 6000 nM | Cc1nc(-c2ccc3c(c2)OCC3NC(=O)c2cnn(C)c2)no1 (centres unmarked) [Compound 212, 1-methyl-N-(6-(5-methyl-1,2,4-oxadiazol-3-yl)-2,3-dihydrobenzofuran-3-yl)-1H-pyrazole-4-carboxamide] |
| 1200 nM | 4700 nM | Cc1cc(C(=O)N[C@@H]2CCc3cc(-c4nc(C(F)F)no4)ccc32)n(C)n1 [Compound 213, (R)-N-(5-(3-(difluoromethyl)-1,2,4-oxadiazol-5-yl)-2,3-dihydro-1H-inden-1-yl)-1,3-dimethyl-1H-pyrazole-5-carboxamide] |
| 1300 nM | 4900 nM | Cc1nn(C)cc1C(=O)N[C@@H]1CCc2cc(-c3nc(C(F)F)no3)ccc21 [Compound 214, (R)-N-(5-(3-(difluoromethyl)-1,2,4-oxadiazol-5-yl)-2,3-dihydro-1H-inden-1-yl)-1,3-dimethyl-1H-pyrazole-4-carboxamide] |
| 3000 nM | 12400 nM | Cc1ncc(C(=O)N[C@@H]2CCc3cc(-c4nc(C(F)F)no4)ccc32)o1 [Compound 215, (R)-N-(5-(3-(difluoromethyl)-1,2,4-oxadiazol-5-yl)-2,3-dihydro-1H-inden-1-yl)-2-methyloxazole-5-carboxamide] |
| 1300 nM | 4900 nM | Cn1nnc(C(=O)N[C@@H]2CCc3cc(-c4nc(C(F)F)no4)ccc32)n1 [Compound 216, (R)-N-(5-(3-(difluoromethyl)-1,2,4-oxadiazol-5-yl)-2,3-dihydro-1H-inden-1-yl)-2-methyl-2H-tetrazole-5-carboxamide] |
| 600 nM | 1900 nM | Cn1nccc1C(=O)N[C@@H]1CCc2cc(-c3nc(C(F)F)no3)ccc21 [Compound 217, (R)—N-(5-(3-(difluoromethyl)-1,2,4-oxadiazol-5-yl)-2,3-dihydro-1H-inden-1-yl)-1-methyl-1H-pyrazole-5-carboxamide] |
| 500 nM | 1600 nM | Cn1cc(C(=O)N[C@@H]2COc3cc(-c4noc(C(F)F)n4)ccc32)cn1 [Compound 218, (S)-N-(6-(5-(difluoromethyl)-1,2,4-oxadiazol-3-yl)-2,3-dihydrobenzofuran-3-yl)-1-methyl-1H-pyrazole-4-carboxamide] |
| 700 nM | 2500 nM | Cn1cc(C(=O)NC2COc3cc(-c4noc(C(F)F)n4)ccc32)cn1 (centres unmarked) [Compound 219, N-(6-(5-(difluoromethyl)-1,2,4-oxadiazol-3-yl)-2,3-dihydrobenzofuran-3-yl)-1-methyl-1H-pyrazole-4-carboxamide] |
| 38300 nM | > 39200 nM | Cn1nccc1C(=O)N[C@H]1COc2cc(-c3noc(C4CC4)n3)ccc21 [Compound 220, (R)-N-(6-(5-cyclopropyl-1,2,4-oxadiazol-3-yl)-2,3-dihydrobenzofuran-3-yl)-1-methyl-1H-pyrazole-5-carboxamide] |
| 600 nM | 2000 nM | Cn1nccc1C(=O)NC1COc2cc(-c3noc(C4CC4)n3)ccc21 (centres unmarked) [Compound 221, N-(6-(5-cyclopropyl-1,2,4-oxadiazol-3-yl)-2,3-dihydrobenzofuran-3-yl)-1-methyl-1H-pyrazole-5-carboxamide] |
| 1300 nM | 4200 nM | COCc1nc(-c2ccc3c(c2)OCC3NC(=O)c2ccnn2C)no1 (centres unmarked) [Compound 223, N-(6-(5-(methoxymethyl)-1,2,4-oxadiazol-3-yl)-2,3-dihydrobenzofuran-3-yl)-1-methyl-1H-pyrazole-5-carboxamide] |
| 600 nM | 2100 nM | COCc1nc(-c2ccc3c(c2)OC[C@H]3NC(=O)c2ccnn2C)no1 [Compound 224, (S)-N-(6-(5-(methoxymethyl)-1,2,4-oxadiazol-3-yl)-2,3-dihydrobenzofuran-3-yl)-1-methyl-1H-pyrazole-5-carboxamide] |
